Experimental data published in patent US7063946B2, “Methods, reagents, kits and apparatus for protein function analysis” (Meso Scale Technologies, LLC., priority 2001, dated 2006).

Legend:
Assay type in all cases: biochemical
BTK = molecular target: T1, BTK (Homo sapiens, UniProt Q06187); assay: Kinase inhibitor profiling, pEY phosphorylation
T1 construct: specificity data for proteins generated from a library of eighteen full-length clones; host or cells: rabbit reticulocyte lysate, TnT coupled in vitro transcription/translation (cell-free)
Description: (§1) Proteins were produced in an in vitro transcription and translation reaction. […] The unbound components of the reaction containing endogenous kinases were removed by three washes with TT-buffer (25 mM Tris-HCl buffer pH 7.4 and 0.004% Triton), two five minutes washings with high-salt wash buffer (25 mM Tris-HCl buffer pH 7.4, 0.004% Triton, 1M NaCl and 5 mM DTT) and 3 more washes with TT-buffer. To these immobilized and purified proteins a tyrosine kinase substrate, 5 nM pEY (poly Glu-Tyr, Sigma, MO), was added in a 50 μl reaction solution containing 5 mM MgCl2, 5 mM MnCl2, 100 μM ATP, 25 mM Tris-HCl buffer pH 7.4, 0.05 mM Na3VO4, 0.004% TritonX-100, 2 mM DTT and EDTA-free protease inhibitor (Roche Molecular Biochemicals). This mixture was incubated with shaking at room temperature overnight to allow phosphorylation of the pEY substrate by the immobilized kinases. Following this incubation, 45 μl of this mixture was transferred to a streptavidin or avidin-coated NPT IPR plate coated with biotinylated anti-phosphotyrosine antibody (PY20, Zymed labs, CA) followed by incubation for 30 minutes at room temperature to allow the binding of the phosphorylated pEY substrate to the PY20 coated NPT plate. Following this binding step, 50 ng Sulfo-TAG labeled anti-phosphotyrosine in buffer containing 25 mM Tris-HCl buffer pH 7.4, 5 mM MgCl2, 0.05 mM Na3VO4, 0.004% TritonX-100, 2 mM DTT and 0.05% IgG was added followed by incubation at room temperature for 30 mm. The unbound reagents were removed by one time washing with water, and the TAG label was detected in presence of 150 μl IPR assay buffer (0.4 mM Gly-Gly buffer, pH 7.8, 1 mM EDTA, 0.1 M TPA). The ECL signals were measured using an imaging plate reader.
(§2) The unbound components of the translation reaction (including any endogenous kinases) were removed by 3 washes with TT-buffer (25 mM Tris-HCl buffer pH 7.4 and 0.004% Triton), two five minutes washes with high-salt wash buffer (25 mM Tris-HCl buffer pH 7.4, 0.004% Triton, 1M NaCl and 5 mM DTT) and 3 washes with TT-buffer. […] The mixture was incubated at room temperature for 10 mm before starting the kinase reaction by adding 25 μl of 200 μM ATP in buffer A. This mixture was incubated with intermittent shaking at room temperature for 2 hours to overnight to allow (a) phosphorylation of the pEY substrate and (b) autophosphorylation of the immobilized kinases. Autophosphorylation and phosphorylation of the pEY was measured as described in Examples 7 and 8.
(§3) The ECL signal in control wells produced by tyrosine kinases was compared to the wells containing inhibitor compounds.

LCK = molecular target: T2, LCK (Homo sapiens, UniProt P06239); assay: Kinase inhibitor profiling, pEY phosphorylation
T2 construct: specificity data for proteins generated from a library of eighteen full-length clones; host or cells: rabbit reticulocyte lysate, TnT coupled in vitro transcription/translation (cell-free)
Description: as §1, §2, §3

FRK = assay: Kinase inhibitor profiling, autophosphorylation
Description: Proteins were produced from DNA plasmids of Mock Luciferase, Promega, tyrosine kinase clone Spleen Tyrosine kinase (SYK, IMAGE ID# 3870426) and Eph receptor-A7 (EphA7, IMAGE ID# 3991628) (Incyte Genomics, CA) and immobilized on streptavidin or avidin coated NPT-IPR plates as described in the Example 7. To promote autophosphorylation in these immobilized and purified proteins, Mn++ ions were added in a 50 μl reaction containing 5 mM MgCl2, 5 mM MnCl2, 100 μM ATP, 25 mM Tris-HCl buffer pH 7.4, 0.05 mM Na3VO4, 0.004% TritonX-100, 2 mM DTT and EDTA-free protease inhibitor (Roche Molecular Biochemicals). This mixture was incubated with shaking at room temperature overnight to allow autophosphorylation. Following this incubation, wells were washed 2 times with TT-buffer and 2 times with water. Following this step, 50 ng Sulfo-TAG labeled anti-phosphotyrosine in buffer containing 25 mM Tris-HCl buffer pH 7.4, 5 mM MgCl2, 0.05 mM Na3VO4, 0.004% TritonX-100, 2 mM DTT and 0.05% IgG in a final volume of 50 μl was added followed by incubation at room temperature for 45 min. The unbound reagents were removed by one time washing with water, and the TAG label was detected in presence of 150 μl IPR assay buffer (0.4 mM Gly—Gly buffer, pH 7.8, 1 mM EDTA, 0.1 M TPA). The ECL signals were measured using an imaging plate reader.
Proteins were produced using 100 ng of plasmid DNA Mock (Luciferase, Promega) or tyrosine kinases (Fert2 IMAGE ID # 4485050, FGFR1 IMAGE ID # 4037899, Fgfr2 IMAGE ID # 2654352, Src IMAGE ID # 3156400, BMX IMAGE ID # 3919253, LCK IMAGE ID # 4191610, Epha7 IMAGE ID # 3991628, Ephb4 IMAGE ID # 4013934, Tek IMAGE ID # 3482498, HCK IMAGE ID # 4778819, BTK IMAGE ID # 4478463, CSK IMAGE ID # 4398416, SYK IMAGE ID # 3870426, FGR IMAGE ID # 4419973, PTK2B IMAGE ID # 4339456, FRK(IMAGE ID # 4515877, Kit IMAGE ID # 2644960, Fgfr-4 IMAGE ID # 4239139, NTRK3 IMAGE ID # 4181574, Kdr IMAGE ID # 4238984, Incyte Genomics, CA) and immobilized on SA or avidin coated NPT-IPR plates as described in previous examples. The unbound components of the translation reaction (including any endogenous kinases) were removed by 3 washes with TT-buffer (25 mM Tris-HCl buffer pH 7.4 and 0.004% Triton), two five minutes washes with high-salt wash buffer (25 mM Tris-HCl buffer pH 7.4, 0.004% Triton, 1M NaCl and 5 mM DTT) and 3 washes with TT-buffer. […] The mixture was incubated at room temperature for 10 mm before starting the kinase reaction by adding 25 μl of 200 μM ATP in buffer A. This mixture was incubated with intermittent shaking at room temperature for 2 hours to overnight to allow (a) phosphorylation of the pEY substrate and (b) autophosphorylation of the immobilized kinases. Autophosphorylation and phosphorylation of the pEY was measured as described in Examples 7 and 8.
The ECL signal in control wells produced by tyrosine kinases was compared to the wells containing inhibitor compounds. The signal produced from Mock was negligible.

T1 sequence (Q06187 whole entry): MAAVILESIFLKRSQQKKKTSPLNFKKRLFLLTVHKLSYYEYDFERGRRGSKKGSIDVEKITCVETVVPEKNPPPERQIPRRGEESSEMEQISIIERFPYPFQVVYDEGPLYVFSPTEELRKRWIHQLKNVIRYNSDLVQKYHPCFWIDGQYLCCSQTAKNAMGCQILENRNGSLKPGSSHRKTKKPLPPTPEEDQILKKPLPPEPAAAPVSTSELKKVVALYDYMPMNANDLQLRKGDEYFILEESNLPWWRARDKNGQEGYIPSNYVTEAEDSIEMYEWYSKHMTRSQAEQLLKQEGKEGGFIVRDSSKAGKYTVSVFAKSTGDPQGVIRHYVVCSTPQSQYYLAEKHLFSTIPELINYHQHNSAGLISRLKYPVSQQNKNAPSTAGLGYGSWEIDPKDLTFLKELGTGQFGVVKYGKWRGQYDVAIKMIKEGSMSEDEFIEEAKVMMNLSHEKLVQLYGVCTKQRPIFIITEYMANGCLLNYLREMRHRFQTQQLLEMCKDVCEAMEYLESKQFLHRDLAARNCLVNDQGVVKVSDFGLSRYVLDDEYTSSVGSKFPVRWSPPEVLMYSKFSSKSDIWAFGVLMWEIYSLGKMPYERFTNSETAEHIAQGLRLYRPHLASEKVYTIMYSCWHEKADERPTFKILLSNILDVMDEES
T2 sequence (P06239 whole entry): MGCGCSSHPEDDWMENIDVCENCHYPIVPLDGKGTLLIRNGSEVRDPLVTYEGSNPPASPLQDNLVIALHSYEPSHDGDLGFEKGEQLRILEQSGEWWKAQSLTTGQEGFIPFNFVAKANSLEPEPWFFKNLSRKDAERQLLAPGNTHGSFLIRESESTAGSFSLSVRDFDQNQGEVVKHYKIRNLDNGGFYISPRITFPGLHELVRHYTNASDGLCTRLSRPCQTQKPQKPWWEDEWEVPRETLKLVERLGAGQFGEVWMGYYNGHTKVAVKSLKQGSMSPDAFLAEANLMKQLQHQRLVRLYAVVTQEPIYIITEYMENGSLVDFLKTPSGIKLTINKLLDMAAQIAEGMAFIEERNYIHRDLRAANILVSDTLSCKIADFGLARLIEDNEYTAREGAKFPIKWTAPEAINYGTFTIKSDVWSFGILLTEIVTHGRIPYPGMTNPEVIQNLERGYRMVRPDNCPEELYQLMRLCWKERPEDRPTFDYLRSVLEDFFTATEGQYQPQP

Row | Compound | Inhibition specificity towards pEY phosphorylation at 10X IC50, BTK (BTK) | Inhibition specificity towards pEY phosphorylation at 10X IC50, LCK (LCK) | Inhibition specificity towards Autophosphorylation at 10X IC50, FRK (FRK)
1 | COc1cc2ncnc(Nc3ccc(O)cc3)c2cc1OC [WHI-P131] | M (medium inhibition (“M”=between 25 to 50% of the activity remaining)) | H (high inhibition (“H”=less than 25% of the activity remaining)) | 
2 | Cc1ccc(-c2nn(C(C)(C)C)c3ncnc(N)c23)cc1 [PP1] |  | M (medium inhibition (“M”=between 25 to 50% of the activity remaining)) | 
3 | COC(=O)c1ccc(NCc2cc(O)ccc2O)cc1 [AG-957] |  |  | L (low inhibition (“L”=between 50–75% of the activity remaining))
4 | Cc1cc2ncc(-c3ccc(O)c(O)c3)nc2cc1C [AG-1433] | H (high inhibition (“H”=less than 25% of the activity remaining)) |  | H (high inhibition (“H”=less than 25% of the activity remaining))
5 | COc1cc2ncnc(Nc3ccc(Cl)cc3F)c2cc1OC [VEGFR inhibitor] | M (medium inhibition (“M”=between 25 to 50% of the activity remaining)) | H (high inhibition (“H”=less than 25% of the activity remaining)) | 
6 | CC(C)(C)c1cc(C=C(C#N)C#N)cc(Br)c1O [AG-1024] | H (high inhibition (“H”=less than 25% of the activity remaining)) |  | 
7 | COc1c(C=O)c(O)cc2c1C(=O)c1ccccc1C2=O [Damnacanthal] | H (high inhibition (“H”=less than 25% of the activity remaining)) |  | H (high inhibition (“H”=less than 25% of the activity remaining))
